Laboratory results from patent US12371453B2, “Polypeptide having antibacterial activity, composition for preventing or treating sepsis comprising same, and antibacterial composition” (priority 2019, dated 2025).
pKd: −log10 of the molar value. ≈ marks a conversion by molar mass, not a printed value. Where two headings read alike, the source gives them in different places. Square brackets hold non-standard residues; d marks the D form. Peptide text beside a SMILES is read from it.

How the values were obtained:
[1] = test system: E. coli; format: cell-based
[2] = test system: Carbapenem resistant (CR)-Acinetobactor baumannii; test: organism not typed
[3] = Calcein dye leakage from liposome mimicking gram-positive bacterial cell membrane; format: biochemical; settings: calcein-encapsulated liposome
Experimental: To study the action mechanisms for FPT2-NH2, FPT3-NH2, allD FPT2-NH2, and allD FP13-NH2 peptides, the disruption ability of the peptides against a liposome mimicking a bacterial cell membrane was measured.

[4] = test system: S. aureus
[5] = Calcein dye leakage from liposome mimicking human red blood cell membrane; format: biochemical; settings: calcein-encapsulated liposome
Experimental: (§1) To study an action mechanism for FP12-NH2, FP13-NH2, allD FP12-NH2, and allD FP13-NH2 peptides, the disruption ability of the peptides against liposomes mimicking a bacterial cell membrane and a red blood cell membrane was measured.
(§2) EYPG is an abbreviation for egg yolk L-α-phosphatidyl-DL-glycerol, and EYPC is an abbreviation for egg yolk 1,2-diacyl-sn-glycero-3-phosphocholine. CH is an abbreviation for cholesterol. After dissolving the phospholipids composed according to the content of each component in chloroform, the chloroform was removed using a rotary evaporator, and lyophilization was performed overnight. Afterward, the dried lipid film was dissolved in a Tris-buffer solution, and calcein […]. After repeated freezing and thawing, the calcein-encapsulated liposome was manufactured using an extruder. Subsequently, after an excitation wavelength of a spectrofluorimeter (Shimadzu RF 5301 PC spectrofluorimeter, Japan) was set to 490 nm, and an emission wavelength was set to 520 nm, the peptide was administered to the liposome to measure relative dye leakage, provided that a 100% dye leakage was expressed as fluorescence intensity when 0.010% Triton-X100 was added.
(§3) The upper graphs of FIG. 3 show the % dye leakage for an EYPC/EYPG (7:3, w/w) liposome mimicking bacterial cells, encapsulating a fluorescent dye, calcein, by a peptide according to a peptide concentration. […] The lower graphs of FIG. 3 show the % dye leakage for an EYPC/CH (10:1, w/w) liposome, which is […] mimicking a human red blood, encapsulating a fluorescent dye, calcein, by a peptide according to a peptide concentration.

[6] = test system: CR-Klebsiella pneumoniae; settings: CR-
[7] = test system: ESBL (E. coli); settings: ESBL
[8] = test system: Colistin resistant AB (Acinetobactor baumannii)
[9] = test system: A. baumannii; format: cell-based
[10] = test system: trypsin, protease K, and chymotrypsin; settings: read out by antibacterial activity
[11] = LPS binding affinity by Isothermal Titration Calorimeter (ITC); set-up: species or system E. coli K1
From the text: FPT (ADK 44-54) is denoted by wild type (WT), and peptides in which a point mutation occurred at various sites in WT were manufactured (FP3, FP5, FP6, and FP9). To increase the interaction with LPS in a residue sequence of FP3, peptides were designed based on FP3- and LPS-binding models (FP12-NH2 and FP13-NH2), and peptides were designed by additionally introducing a non-natural amino acid and an amino acid isomer (allomeric D-type amino acid) (allD FP12-NH2, allD FP13-NH2, allD FP-13-9a, allD FP-13-9w, allD FP-13-9k, and allD FP13-NH2 (AcOH)). In addition, an N-terminus PEGylated peptide (PEG-alld FP13-NH2 (AcOH)) was additionally designed, synthesized, and provided by ANYGEN, Co. Ltd. The binding affinity between each of the provided peptides and lipopolysaccharide (LPS) was confirmed through measuring the binding affinity (Kd) using Isothermal Titration Calorimeter (ITC).
Specifically, a method of analyzing binding affinity (Kd) between a peptide and LPS is as follows.
Measurement was carried out using a Malvern MicroCal PEAQ-ITC cell instrument, and the following pretreatment was carried out to confirm interaction with LPS. The amount and morphology of a sample cell are 300 μL and coin-shaped, fixed-in-place, respectively; a syringe rotation rate was 1,200 rpm; and a temperature was 30° C., 35° C. or 25° C.
Before the experiment, LPS and the peptide were previously diluted with PBS, thereby preparing 2 mM LPS and 0.2 mM peptide. 300 μL of the peptide was added into cells in the ITC instrument, which had been washed, and 40 μL of LPS was put into a syringe. After measurement conditions for ITC (temperature, number of injections) were set, the syringe was inserted into the cell, and ITC measurement was started. When the measurement was completed, analysis is performed, and the Kd values of LPS and the peptide were calculated.

[12] = Calcein dye leakage from liposome mimicking gram-negative bacterial cell membrane; format: biochemical; settings: calcein-encapsulated liposome
Experimental: as §1, §2, §3

[13] = LTA binding by ITC analysis; settings: cell wall component of gram-positive bacteria (S. aureus)
From the text: The binding affinity to lipoteichoic acid (LTA) and lipoprotein (LPP), which are cell wall components of gram-positive bacteria (S. aureus), was confirmed through ITC analysis using allD FP13-NH2.
The binding affinity was confirmed using the ITC analysis method, and the experimental method in Example 1 was applied mutatis mutandis.

CC(C)C[C@@H](NC(=O)[C@H](N)CCCCN)C(=O)N[C@H](CCCNC(=N)N)C(=O)N[C@@H](C(=O)N[C@H](CCCCN)C(=O)N[C@H](CC(C)C)C(=O)N[C@H](CCCNC(=N)N)C(=O)N[C@H](CCCNC(=N)N)C(=O)N[C@H](Cc1ccc(O)cc1)C(=O)N[C@H](CC(C)C)C(=O)N[C@H](CCCNC(=N)N)C(N)=O)C(C)C [allD FP13-NH2] (H-[dK][dL][dR][dV][dK][dL][dR][dR][dY][dL][dR]-NH2; N-terminus assumed)
MIC50 [1]: 2 µM (≈ 3 µg/mL)
MIC90 [1]: 4 µM (≈ 6 µg/mL)
MIC90 ([1]; E. coli + 0.8 uM Chymotrypsin): 6(4~8) uM
MIC90 ([1]; E. coli + 0.8 uM protease K): 6(4~8) uM
MIC50, Carbapenem resistant (CR)-Acinetobactor baumannii [2]: <4 µg/mL
dye leakage, EYPG/EYPC (6:4, w/w) liposome mimicking gram-positive bacterial cell membrane [3]: high dye leakage
MIC50 [4]: 4 µM (≈ 6 µg/mL)
MIC90 [4]: 8 µM (≈ 12 µg/mL)
dye leakage, PC/CH liposome mimicking a red blood cell membrane [5]: almost no dye leakage
MIC50, CR-Klebsiella pneumoniae [6]: <8 µg/mL
MIC50, ESBL (E. coli) [7]: <0.5 µg/mL
MIC50, Colistin resistant AB [8]: <16 µg/mL
MIC50 [9]: 4 µM (≈ 6 µg/mL)
MIC90 [9]: 8 µM (≈ 12 µg/mL)
resistance to the proteolytic enzyme [10]: much improved resistance
LPS binding affinity (in words) ([11]; compared with FP1 (wild type, WT)): strong LPS binding affinity
pKd ([11]; peptide binding to LPS, read-out: Kd (calculated by ITC)): 5.32
dye leakage, PC/PG (7:3, w/w) liposome mimicking a bacteria cell membrane [12]: high dye leakage
binding to LTA (ITC) [13]: binds
